Target: Receptor-type tyrosine-protein phosphatase C, CD45/PTPRC (Homo sapiens) (UniProt P08575)
Experiment: Inhibition of CD45 PTP by fluorescence spectrometry

Chain of Receptor-type tyrosine-protein phosphatase C, CD45/PTPRC (Homo sapiens) (P08575 whole entry, looked up): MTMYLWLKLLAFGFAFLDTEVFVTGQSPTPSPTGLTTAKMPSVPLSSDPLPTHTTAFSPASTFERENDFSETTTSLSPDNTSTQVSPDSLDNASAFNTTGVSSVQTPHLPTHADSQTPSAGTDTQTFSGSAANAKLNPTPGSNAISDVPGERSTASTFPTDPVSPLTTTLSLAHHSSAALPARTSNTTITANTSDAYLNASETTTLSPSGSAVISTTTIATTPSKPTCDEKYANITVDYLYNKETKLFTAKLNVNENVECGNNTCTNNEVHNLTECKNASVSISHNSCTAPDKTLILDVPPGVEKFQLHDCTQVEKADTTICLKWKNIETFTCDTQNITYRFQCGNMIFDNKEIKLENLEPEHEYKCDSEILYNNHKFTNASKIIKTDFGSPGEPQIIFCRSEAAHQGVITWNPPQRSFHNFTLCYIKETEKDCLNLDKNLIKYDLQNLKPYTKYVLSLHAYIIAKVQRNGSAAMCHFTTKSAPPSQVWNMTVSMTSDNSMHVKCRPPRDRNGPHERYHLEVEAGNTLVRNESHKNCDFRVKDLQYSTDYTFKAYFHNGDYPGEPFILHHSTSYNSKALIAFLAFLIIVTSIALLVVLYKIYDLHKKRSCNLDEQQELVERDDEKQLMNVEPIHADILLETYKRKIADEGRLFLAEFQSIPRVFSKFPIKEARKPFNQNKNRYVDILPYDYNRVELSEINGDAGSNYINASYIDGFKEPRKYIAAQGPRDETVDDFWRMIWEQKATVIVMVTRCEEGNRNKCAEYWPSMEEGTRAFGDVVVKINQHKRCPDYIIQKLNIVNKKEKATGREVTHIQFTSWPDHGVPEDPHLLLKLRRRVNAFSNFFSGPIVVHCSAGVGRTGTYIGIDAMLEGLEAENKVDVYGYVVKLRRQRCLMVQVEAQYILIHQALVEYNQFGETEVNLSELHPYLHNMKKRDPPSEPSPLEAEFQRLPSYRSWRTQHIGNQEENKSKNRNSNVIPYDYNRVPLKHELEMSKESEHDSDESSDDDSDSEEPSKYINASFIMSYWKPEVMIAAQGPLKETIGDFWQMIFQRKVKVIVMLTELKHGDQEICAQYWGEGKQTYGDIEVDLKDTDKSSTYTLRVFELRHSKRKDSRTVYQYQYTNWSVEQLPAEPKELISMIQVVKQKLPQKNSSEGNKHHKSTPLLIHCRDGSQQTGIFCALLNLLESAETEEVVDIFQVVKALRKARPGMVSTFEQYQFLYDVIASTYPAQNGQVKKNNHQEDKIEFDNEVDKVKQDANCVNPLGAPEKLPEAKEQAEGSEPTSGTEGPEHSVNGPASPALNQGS

- IC50: 1200 nM
SMILES: Oc1ccc(-c2ccc(-c3nnn[nH]3)cc2Cl)cc1C12CC3CC(CC(C3)C1)C2 [5-[3'-(1-adamantyl)-2-chloro-4'-hydroxy-4-biphenyl]-1H-tetrazole]

From BindingDB's records for doi:10.1021/jm0613323 (Burnham Institute For Medical Research, 2007)
